# Test results from PMC10559933 (The Prostate, 2023).
# Where “and” joins values, the source holds several entries; their conditions need not be identical. Identical values can stand only once.
# Experiments:
# [1] = molecular target: fl-HDAC4 (Homo sapiens, UniProt P56524); test: HDAC4 enzymatic assay with Lys; assay type: biochemical; conditions: Lys(TFA)-AMC substrate
# [2] = test system: thymus; test: AHR agonist induced thymus regression in FVB male mice; assay type: in vivo
# [3] = test system: LvCaP-3 human prostate cancer PDXs; test: In vivo growth of LvCaP-3 PDX in castrate mice; set-up: species or system human xenograft in mice; conditions: oral 10 mg/kg/d
# [4] = molecular target: human AHR (Homo sapiens, UniProt P35869); test: Photo-affinity label; conditions: competitive PAL AHR binding assay
# [5] = molecular target: T1, Human Aryl Hydrocarbon Receptor (AHR) (Homo sapiens, UniProt P35869); test: Cell-based luciferase reporter gene assay driven by AHR-responsive promoter
# T1 sequence (P35869 11-848): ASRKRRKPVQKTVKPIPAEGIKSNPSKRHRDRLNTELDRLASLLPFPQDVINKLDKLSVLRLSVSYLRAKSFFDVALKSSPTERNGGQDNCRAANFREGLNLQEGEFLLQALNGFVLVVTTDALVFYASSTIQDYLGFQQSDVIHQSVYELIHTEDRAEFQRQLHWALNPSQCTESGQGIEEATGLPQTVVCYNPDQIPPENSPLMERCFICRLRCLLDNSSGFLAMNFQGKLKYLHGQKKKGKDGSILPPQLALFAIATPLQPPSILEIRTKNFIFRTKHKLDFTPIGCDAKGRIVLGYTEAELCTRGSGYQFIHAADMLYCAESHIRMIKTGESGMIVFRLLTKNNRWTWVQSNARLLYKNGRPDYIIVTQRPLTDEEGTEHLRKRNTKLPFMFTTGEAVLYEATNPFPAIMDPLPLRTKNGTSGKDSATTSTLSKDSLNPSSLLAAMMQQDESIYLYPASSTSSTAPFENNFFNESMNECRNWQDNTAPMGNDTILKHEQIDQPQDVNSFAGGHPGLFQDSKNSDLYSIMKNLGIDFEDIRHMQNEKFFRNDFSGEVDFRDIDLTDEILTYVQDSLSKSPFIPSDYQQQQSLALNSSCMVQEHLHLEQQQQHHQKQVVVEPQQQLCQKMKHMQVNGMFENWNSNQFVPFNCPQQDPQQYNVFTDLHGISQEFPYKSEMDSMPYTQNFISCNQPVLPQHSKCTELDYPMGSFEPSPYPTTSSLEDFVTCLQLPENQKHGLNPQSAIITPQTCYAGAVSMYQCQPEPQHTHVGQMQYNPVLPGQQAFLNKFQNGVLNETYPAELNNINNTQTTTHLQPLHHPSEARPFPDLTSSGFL
# [6] = test system: CWR22-RH human prostate cancer PDXs; test: In vivo growth of CWR22-RH PDX in castrate NSG mice; set-up: species or system human xenograft in NSG mice
# [7] = Serum pharmacokinetics after oral gavage in mice; assay type: in vivo
# [8] = test system: liver Cyp1a1; test: Liver Cyp1a1 induction in mice; assay type: in vivo; conditions: oral, even at 30 mg/kg/d
# [9] = molecular target: nuclear MEF2/HDAC4/NCoR1 (Homo sapiens, UniProt P56524); test: Nuclear NCoR1 immunoprecipitated with MEF-2 in CWR-22Rv1 cells under hypoxia; assay type: cell-based; conditions: discussion summary
# [10] = test system: 68 kinases; test: Targeted kinase screen; assay type: biochemical; conditions: 10 μM
# [11] = Water solubility; assay type: physicochemical
# [12] = molecular target: immobilized fl-HDAC4 (Homo sapiens, UniProt P56524); test: SPR: compound in solution binding to immobilized fl-HDAC4; conditions: at >30 μM in solution, Zn2+ present
# [13] = chronic doses of ≤0.1 mg/kg; cited from earlier work
# Chain of fl-HDAC4 (P56524 whole entry): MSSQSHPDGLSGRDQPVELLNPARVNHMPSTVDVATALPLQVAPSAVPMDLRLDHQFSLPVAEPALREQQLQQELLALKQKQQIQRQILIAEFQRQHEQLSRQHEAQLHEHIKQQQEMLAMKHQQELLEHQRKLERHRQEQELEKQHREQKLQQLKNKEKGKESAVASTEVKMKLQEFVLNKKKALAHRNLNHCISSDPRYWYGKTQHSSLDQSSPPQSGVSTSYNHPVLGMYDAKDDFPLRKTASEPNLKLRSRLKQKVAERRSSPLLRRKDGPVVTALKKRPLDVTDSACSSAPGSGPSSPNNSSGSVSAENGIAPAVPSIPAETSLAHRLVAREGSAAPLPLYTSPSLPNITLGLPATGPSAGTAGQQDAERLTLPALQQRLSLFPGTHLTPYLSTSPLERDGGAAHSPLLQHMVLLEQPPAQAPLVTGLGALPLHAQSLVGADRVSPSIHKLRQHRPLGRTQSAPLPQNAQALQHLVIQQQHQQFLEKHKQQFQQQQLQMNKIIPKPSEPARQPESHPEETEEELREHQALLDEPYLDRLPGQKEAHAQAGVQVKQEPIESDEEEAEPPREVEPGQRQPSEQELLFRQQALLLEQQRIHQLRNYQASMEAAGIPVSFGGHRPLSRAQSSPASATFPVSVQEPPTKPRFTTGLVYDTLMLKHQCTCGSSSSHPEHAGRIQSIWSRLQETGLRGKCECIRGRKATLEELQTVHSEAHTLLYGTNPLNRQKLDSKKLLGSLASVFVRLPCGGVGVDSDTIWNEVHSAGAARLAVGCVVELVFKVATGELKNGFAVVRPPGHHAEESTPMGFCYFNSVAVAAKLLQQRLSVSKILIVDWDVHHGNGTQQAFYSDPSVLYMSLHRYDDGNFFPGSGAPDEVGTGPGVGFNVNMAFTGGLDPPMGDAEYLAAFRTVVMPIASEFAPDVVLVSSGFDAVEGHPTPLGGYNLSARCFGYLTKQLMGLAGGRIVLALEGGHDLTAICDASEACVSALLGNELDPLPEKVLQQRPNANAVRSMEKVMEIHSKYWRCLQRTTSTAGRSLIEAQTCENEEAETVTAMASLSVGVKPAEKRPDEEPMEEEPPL
# Chain of immobilized fl-HDAC4 (P56524 whole entry): as above
# Chain of nuclear MEF2/HDAC4/NCoR1 (P56524 whole entry): as above
structure (smiles),measurement,setting,value
O=C(c1ccc(C(=O)C(F)(F)F)s1)N1CCn2c(-c3ccccc3)cnc2C1 [TFT-PIP],effect on enzymatic activity,[1],inhibited
"c1ccc2c(c1)cc1ccc3cccc4ccc2c1c34 [B(a)P, benzo[a]pyrene]",thymus weight,"[2]; oral 10 mg/kg/d for 14 days, vehicle 72 +/− 3 (>70)",27 ± 8 mg
same,therapeutic efficacy,[3],completely lacks therapeutic efficacy
COc1cccc2c1c(O)c(C(=O)N(c1ccc(C(F)(F)F)cc1)C1CCCCC1)c(=O)n2C [ESATA-20],fold lower binding affinity than TasQ,[4],10 fold
same,fold lower AHR agonism than TasQ,[5]; cell-based AHR-promoter assay,10 fold and ~ 10 fold
same,EC50,"[5]; read-out: AHR agonist EC50, human cell-based luciferase reporter",10 µM
same,anti-cancer efficacy,[6]; 10 mg/kg/d oral,same significant maximal anti-cancer efficacy as TasQ
same,serum concentration at which maximal anti-prostate cancer efficacy is produced,[6]; in vivo,< 2 µM
same,fold lower bioavailability than TasQ,"[7]; 10 mg/kg oral, DMSO/HPCD vehicle",5.5 fold
same,alpha half-life for tissue distribution,"[7]; mouse, in vivo",3 h
same,beta half-life for serum elimination,"[7]; mouse, in vivo",10 to 12 h
same,drug bound to serum proteins,"[7]; mouse, in vivo",> 98%
same,thymus regression,"[2]; oral, even at 30 mg/kg/d",lack of induction
same,induction of liver Cyp1a1,[8],lack of induction
same,fold more potent HDAC4 inhibitor (vs TasQ),[9],≥ 5 fold
same,change in activity in any of the 68 kinases,[10],< 15%
same,water solubility,[11],less water soluble than TasQ
"CN(C(=O)c1c(O)c2ccccc2n(C)c1=O)c1ccccc1 [Linomide, 4-hydroxy-N,1-dimethyl-2-oxo-N-phenyl-1,2-dihydroquinoline-3-carboxamide]",share of immobilized fl-HDAC4 protein bound,[12],10–15%
same,side effects in phase III trials,[13],several cases of pericarditis and neuropathy
COC(=O)c1c(O)c2c(OC)cccc2n(C)c1=O [ESATA-2],growth inhibitor (GI) activity,"[6]; oral 10 mg/kg/d over 3 weeks, castrate NSG mice",no GI activity
